Results: patent publication US20160290995A1, “METHODS OF SELECTING AKT AGONISTS OR ANTAGONISTS” (OREGON HEALTH & SCIENCE UNIVERSITY, priority 2015, published 2016)
Read-outs that look alike come from different tables or passages of the source.

What was measured:
[1] = system: Akt; assay: FOXO1-clover reporter live-cell imaging (relative nuclear intensity) in C3H10T1/2 fibroblasts; type: cell-based, mouse; conditions: for effect of inhibitor on IGF-I-mediated reporter localization: 90 min, graded inhibitor concentrations; for IC50: Mus musculus, C3H 10T1/2; for mean rate of nuclear import of FOXO1-clover: after R3-IGF-I 250 pM; for change of nuclear levels of the reporter on growth factor addition (result in words): different concentrations; for change of nuclear levels of the reporter on growth factor addition (result in words) / time to half-maximal translocation/accumulation of reporter in the cytoplasm after onset of incubation / time to maximal translocation values: cells pre-incubated in SFM; for time to half-maximal translocation/accumulation of reporter in the cytoplasm after onset of incubation / time to maximal translocation values: different growth factor concentrations
Procedure: (§1) Cells were imaged every 2-min for 60 min. At the end of the incubation period whole cell lysates were collected.
10T1/2 cells and C2 myoblasts were incubated in serum-free medium for 90 min. R3-IGF-I was added in supplemented FluoroBrite [0 to 500 pM], and cells were imaged every 2-min for 60 min. […]
(§2) Live cell imaging was performed using an EVOS FL Auto microscope with a stage top incubator that was maintained at 37° C. and 95% humidified air with 5% CO2. Images were collected at 100× magnification at different intervals, using a 10× Fluorite objective (numerical aperture: 0.3), and a GFP light cube (excitation peak, 472/22 nm; emission peak, 510/42 nm). Images were analyzed with the NIH ImageJ plug-in Fiji (NIH, Bethesda, Md.), after using the Polynomial Fit plug-in to subtract background fluorescence, the Stack Reg (rigid registration) plug-in to register images, and the Gaussian Blur plug-in (at 2-pixels) to average fluorescence across pixels. Individual cells were manually tracked using the mTrackJ plug-in (Meijering E et al, Methods Enzymol 504, 183-200 (2012); incorporated by reference herein) by selecting a single point in the nucleus. Cells that died, divided, or migrated out of frame were excluded from analysis. In experiments performed in 6-well dishes, two locations on opposite sides of the well were imaged, while for studies using 24-well plates, one central location was imaged. In each location, at least 25 cells were tracked.

[2] = system: Akt; assay: FoxO1-clover reporter live-cell imaging in HeLa cells; type: cell-based; conditions: IGF-I 500 pM, insulin 1400 pM, EGF 4.2 nM, PDGF-BB 4.1 nM, PDGF-AA 3.5 nM; 90 min
Procedure: HeLa cells (ATCC #CCL2) were incubated in DMEM supplemented with 10% FBS. Cells were transduced at 50% of confluent density with concentrated FoxO1-clover virus in the presence of polybrene (6 μg/ml), as described (Gross S M and Rotwein P, Skelet Muscle 3, doi10.1186/2044-5040-3-10 (2013); incorporated by reference herein), and sorted by fluorescence intensity with a Becton-Dickinson Influx cell sorter. Reporter expression was stable for at least 10 passages in each sorted cell population. C3H10T1/2 mouse embryonic fibroblasts (ATC #CCL226) stably expressing FoxO1-clover (Gross and Rotwein, 2015), were maintained under selection with puromycin (2 μg/ml).
as §2, with “tracked. The relative nuclear intensity of the FoxO1-clover reporter protein was calculated in each cell by normalizing the values measured at time 0 to 100%. This corresponded to incubation in serum-free medium (SFM). In graphs in which single cell responses were plotted with C3H10T1/2 cells, we applied a time-weighted smoothing filter to each data point. This consisted of averaging contributions from the two prior and two succeeding times (adding 50% of the prior or succeeding time point, and 25% of the next succeeding or earlier time point to 100% of the value of the time point in question, and then dividing by 2.5).” for “tracked.”
Short-term responses to individual growth factors: C3H10T1/2 cells were incubated in serum-free Fluorobrite medium plus 2 mM L-glutamine and 0.1% bovine serum albumin for 90 min. Different concentrations of growth factors were added and images were collected every 2 min for 90 min. Growth factors included insulin [0 to 1400 pM], EGF [0 to 4.2 nM], PDGF-AA [0 to 1400 pM], or PDGF-BB [0 to 104 pM]. HeLa cells were incubated in serum-free Fluorobrite medium for 120 min and then incubated with insulin [1400 pM], EGF [4.2 nM], PDGF-AA [3.5 nM], PDGF-BB [4.1 nM], or R3-486 IGF-I [500 pM], with images collected every 2 min.

[3] = system: Akt phosphorylation; assay: Immunoblotting of Akt and PRAS40 phosphorylation in 10T1/2 whole cell lysates; type: cell-based, mouse; conditions: for time course of Akt and PRAS40 phosphorylation (result in words): insulin 1400 pM, EGF 4.2 nM, PDGF-AA 1400 pM, PDGF-BB 104 pM, up to 90 min
Procedure: as §1
Whole cell protein lysates were prepared as described (Mukherjee A and Rotwein P, Mol Endorcrinol 22, 1238-1250 (2008); incorporated by reference herein). Protein aliquots (15 μg/lane) were resolved by SDS-PAGE (12% separating gel), followed by transfer to Immobilon-FL membranes, and blocking with 50% AquaBlock solution. Membranes were incubated sequentially with primary and secondary antibodies, as described (Mukherjee and Rotwein, 2008 supra). Primary antibodies were incubated for 12-16 hr at a 1:1000 dilution, except for α-tubulin (1:10,000), and secondary antibodies for 90 min at 1:5000. Images were captured using the LiCoR Odyssey and version 3.0 analysis software (Lincoln, Nebr.).
C3H10T1/2 cells stably expressing FoxO1-clover were incubated in SFM with Fluorobrite imaging media for 90 min followed by addition of insulin [1400 pM], EGF [4.2 nM], PDGF-AA [1400 pM], or PDGF BB [104 pM]. Whole protein lysates were collected after 0, 5, 15, 30, 60, and 90 min of growth factor exposure by washing cells twice with cold PBS and addition of RIPA buffer containing protease and phosphatase inhibitors (Mukherjee A and Rotwein P, Mol Endocrinol 22, 1238-1250 (2008); incorporated by reference herein). Protein aliquots (12.5 μg/lane) were resolved by SDS PAGE (10% separating gels), and transferred onto Immobilon-FL membranes. Membranes were incubated in 50% AquaBlock for 60 min, followed by addition of primary antibodies at 1:1000 dilution for 16 hr, and secondary antibodies for 90 min at 1:5000. Images were collected using the LiCoR Odyssey and analysis software version 3.0 (Lincoln, Nebr.).

[4] = two highest concentrations of PDGF-AA
[5] = higher concentrations of PDGF-BB
[6] = lower growth factor concentrations

## C[C@]1(O)C[C@@H](c2nc(-c3ccc4ccc(-c5ccccc5)nc4c3)c3c(N)nccn32)C1 [Linsitinib, reference compound]
[1]; IGF-I 500 pM
  effect of inhibitor on IGF-I-mediated reporter localization: dose-dependent decline in maximal IGF-I-mediated cytoplasmic localization of the FoxO1-clover reporter molecule

## Oc1cccc(-c2nc(N3CCOCC3)c3oc4ncccc4c3n2)c1 [PI103, reference compound]
[1]; 60 min after PI103 500 nM, following 60 min IGF-I 250 pM, scaled 0% = IGF-I, 100% = leptomycin
  fraction of reporter in the nucleus: ~56%
[1]; IGF-I 500 pM
  effect of inhibitor on IGF-I-mediated reporter localization: dose-dependent decline in maximal IGF-I-mediated cytoplasmic localization of the FoxO1-clover reporter molecule
[1]; Lepto plus PI103 vs Lepto alone
  enhancement of mean rate of nuclear import by inhibition of PI3-kinase: up to 4 fold
[1]; IGF-I 500 pM, read-out: IC50 for IGF-I-mediated signaling
  IC50: 50 to 200 nM
[1]; PDGF-BB 830 pM, read-out: IC50 for PDGF-BB-mediated signaling
  IC50: 20 to 50 nM
[1]; PI103 500 nM added to cells in SFM
  increase in nuclear localization of the reporter compared with serum-free medium alone: ~10%
[1]; PI103 500 nM after IGF-I 250 pM
  time after addition of PI103 at which N/C=1: ~15 min
[1]; leptomycin B 100 nM plus PI103 500 nM
  mean rate of nuclear import of FOXO1-clover: > 12 % per min

## CCC(=C/[C@H](C)C/C=C/C(C)=C/[C@@H](C)C(=O)[C@@H](C)[C@H](O)[C@@H](C)C/C(C)=C/C(=O)O)/C=C/[C@@H]1OC(=O)C=C[C@@H]1C [leptomycin B, reference compound]
[1]; leptomycin B 100 nM after 60 min IGF-I 25 pM
  half-maximal time of nuclear appearance of reporter after leptomycin B: ~5 min
[1]; leptomycin B 100 nM after 60 min IGF-I 250 pM
  half-maximal time of nuclear appearance of reporter after leptomycin B: ~25 min
[1]; leptomycin B 100 nM after PI103 in SFM
  change of nuclear intensity of the reporter after subsequent leptomycin: nearly a doubling
[1]; leptomycin B 100 nM alone, single exponential fit of individual cells
  mean rate of nuclear import of FOXO1-clover: ~3 % per min

## EGF: mouse EGF (Gibco-Life Technologies), peptide growth factor (NSYPGCPSSYDGYCLNGGVCMHIESLDSYTCNCVIGYSGDRCQTRDLRWWELR; Epidermal growth factor; UniProt P01132 977-1029, looked up)
[2]
  signaling response in HeLa FoxO1-clover cells (result in words): transient responses
[3]
  time course of Akt and PRAS40 phosphorylation (result in words): Similarly transient effects
[1]; population level
  change of nuclear levels of the reporter on growth factor addition (result in words): rapid, dose-dependent, and transient decreases in nuclear levels of the FoxO1-clover reporter protein
  time to half-maximal translocation/accumulation of reporter in the cytoplasm after onset of incubation: 6 to 9 min
  time to maximal translocation values: ~13 min
[1]; population level, after EGF treatment
  time by which signal intensity was waning: 45 min
[1]; sequential exposures, IGF-I 50 or 500 pM with 90-min washout, EGF 4.2 nM after 60 min EGF
  response to a second treatment with the same growth factor: minimally promoted FoxO1-clover reporter translocation out of the nucleus

## PDGF-AA: recombinant human PDGF-AA (Thermo Scientific); binds almost exclusively to the PDGF-α receptor
[2]
  signaling response in HeLa FoxO1-clover cells (result in words): ineffective
[3]
  time course of Akt and PRAS40 phosphorylation (result in words): Similarly brief effects
[1]; population level
  change of nuclear levels of the reporter on growth factor addition (result in words): rapid, dose-dependent decreases in nuclear levels of FoxO1-clover
  time to half-maximal translocation/accumulation of reporter in the cytoplasm after onset of incubation: 6 to 10 min
  time to maximal translocation values: ~14 min
[1]; over the next 40 min after the peak
  decline of population response from peak values: 50-75%
[1]; [4]
  fraction of cells demonstrating sustained effects: 10-15%
  fraction of cells showing no or minimal responses: 25-30%

## PDGF-BB: recombinant human PDGF-BB (Invitrogen); binds PDGF-α and PDGF-β receptors
[2]
  signaling response in HeLa FoxO1-clover cells (result in words): transient responses
[3]; 60 min, 10% FBS, PDGF-BB 206 pM, R3-IGF-I 1 nM, BMP-2 15 nM
  Akt phosphorylation (pAkt T308 immunoblot): stimulation of Akt phosphorylation
[3]
  time course of Akt and PRAS40 phosphorylation (result in words): Similarly sustained signaling
[1]; [5]
  duration of maintained cytoplasmic localization of the reporter: at least 90 min
  time to half-maximal accumulation of FoxO1-clover in the cytoplasm: < 5 min
[1]; [6]
  time to half-maximal accumulation of FoxO1-clover in the cytoplasm: 8 to 9 min
  time to maximal values: ~14 min
[1]; peak concentrations of PDGF-BB
  fraction of cells showing large and sustained signaling responses: 90-99%
[1]; serum-starved cells, 60 min, 10% FBS, PDGF-BB 206 pM, R3-IGF-I 1 nM, BMP-2 15 nM
  subcellular localization of FOXO1-clover (result in words): rapid and sustained translocation of the reporter from the nucleus to the cytoplasm
